Patent US20230212163A1, “2-(HET)ARYL-SUBSTITUTED CONDENSED HETEROCYCLIC DERIVATIVES AS PEST CONTROL AGENTS” (Bayer Aktiengesellschaft, priority 2020, published 2023)
Where two headings read alike, the source gives them in different places.

How the values were obtained:
Spodoptera frugiperda [1] = assay: Spodoptera frugiperda spray test (maize leaf discs); assay type: in vivo; details: Spodoptera frugiperda, foliar, 168 h, application rate 100 g/ha, after 7 days
Procedure: (§1) [table] To produce a suitable active compound formulation, 1 part by weight of active compound is dissolved using the stated parts by weight of solvent and made up with water containing an emulsifier concentration of 1000 ppm until the desired concentration is attained. To produce further test concentrations, the formulation is diluted with emulsifier-containing water. Leaf discs of maize (Zea mays) are sprayed with an active compound formulation of the desired concentration and, after drying, populated with caterpillars of the fall armyworm (Spodoptera frugiperda). After 7 days, the efficacy in % is determined. 100% means that all the caterpillars have been killed; 0% means that no caterpillar has been killed.

Myzus persicae = Myzus persicae oral test; assay type: in vivo; details: 120 h, application rate 4 ppm, after 5 days, read-out: efficacy
Procedure: [table] To produce a suitable active compound formulation, 1 part by weight of active compound is dissolved using the specified parts by weight of solvent and made up with water until the desired concentration is attained. 50 μl of the active compound formulation are transferred into microtitre plates and made up to a final volume of 200 μl with 150 μl of IPL41 insect medium (33%+15% sugar). Subsequently, the plates are sealed with parafilm, which a mixed population of green peach aphids (Myzus persicae) within a second microtitre plate is able to puncture and imbibe the solution through. After 5 days, the efficacy in % is determined. 100% means that all the aphids have been killed; 0% means that no aphids have been killed.

[2] = logP by HPLC on reversed-phase column (C18); assay type: physicochemical; details: LC-UV
Procedure: The logP values were determined according to EEC Directive 79/831 Annex V.A8 by HPLC (high-performance liquid chromatography) on a reversed-phase column (C18) using the following methods: ^[a]The logP value is determined by LC-UV measurement in the acidic range using 0.9 ml/l formic acid in water and 1.0 ml/l formic acid in acetonitrile as mobile phases (linear gradient from 10% acetonitrile to 95% acetonitrile). ^[b]The logP value is determined by LC-UV measurement in the neutral range using 0.001 molar ammonium acetate solution in water and acetonitrile as mobile phases (linear gradient from 10% acetonitrile to 95% acetonitrile). Calibration was carried out using straight-chain alkan-2-ones (having 3 to 16 carbon atoms) with known logP values. The values between successive alkanones are determined by linear regression.

Diabrotica balteata = Diabrotica balteata spray test; assay type: in vivo; details: Diabrotica balteata, 168 h, after 7 days; for pest or weed control at 100 g/ha: application rate 100 g/ha; for pest or weed control at 500 g/ha: application rate 500 g/ha (=160 μg/cavity); for pest or weed control at 500 g/ha / pest or weed control at 31.25 g/ha / pest or weed control at 125 g/ha: read-out: efficacy; for pest or weed control at 20 g/ha: application rate 20 g/ha; for pest or weed control at 31.25 g/ha: application rate 31.25 g/ha (=10 μg/cavity); for pest or weed control at 125 g/ha: application rate 125 g/ha (=40 μg/cavity)
Procedure: [table] To produce a suitable active compound formulation, 1 part by weight of active compound is dissolved using the stated parts by weight of solvent and made up with water containing an emulsifier concentration of 1000 ppm until the desired concentration is attained. To produce further test concentrations, the formulation is diluted with emulsifier-containing water. Pre-swollen wheat grains (Triticum aestivum) are incubated in a multiwell plate filled with agar and a little water for one day (5 seed grains per cavity). The germinated wheat grains are sprayed with an active compound formulation of the desired concentration. Subsequently, each cavity is infected with 10-20 beetle larvae of Diabrotica balteata. After 7 days, the efficacy in % is determined. 100% means that all wheat plants have grown as in the untreated, uninfected control; 0% means that no wheat plant has grown.

Heliothis armigera = Heliothis armigera spray test (HELIAR), comparative; assay type: in vivo; details: Helicoverpa armigera, 168 h, 7 dat, read-out: % efficacy
Procedure: (§2) [table] To produce a suitable active compound formulation, 1 part by weight of active compound is dissolved using the stated parts by weight of solvent and made up with water containing an emulsifier concentration of 1000 ppm until the desired concentration is attained. To produce further test concentrations, the formulation is diluted with emulsifier-containing water. If the addition of ammonium salts or/and penetrants is required, these are each added in a concentration of 1000 ppm to the formulation solution. Cotton plants (Gossypium hirsutum) are sprayed with an active compound formulation of the desired concentration and, after drying, populated with caterpillars of the cotton bollworm (Heliothis armigera). After the desired time, the kill in % is determined. 100% means that all caterpillars have been killed; 0% means that none of the caterpillars have been killed.

Plutella xylostella = Plutella xylostella spray test (PLUTMA), comparative; assay type: in vivo; details: 168 h, 7 dat, read-out: % efficacy
Procedure: as §2, with “solution. Cabbage leaves (Brassica oleracea)” for “solution. Cotton plants (Gossypium hirsutum)”, “concentration and infected” for “concentration and, after drying, populated”, “with larvae” for “with caterpillars”, “the diamondback moth (Plutella xylostella).” for “the cotton bollworm (Heliothis armigera).”

Spodoptera frugiperda [3] = assay: Spodoptera frugiperda spray test (SPODFR, cotton leaves), comparative; assay type: in vivo; details: 168 h, 7 dat, read-out: % efficacy
Procedure: as §2, with “leaves” for “plants”, “and” for “and, after drying,”, “armyworm (Spodoptera frugiperda).” for “cotton bollworm (Heliothis armigera).”

Nezara viridula = Nezara viridula spray test; assay type: in vivo; details: Nezara viridula, 96 h, application rate 500 g/ha, after 4 days
Procedure: [table] To produce a suitable active compound formulation, 1 part by weight of active compound is dissolved using the stated parts by weight of solvent and made up with water containing an emulsifier concentration of 1000 ppm until the desired concentration is attained. To produce further test concentrations, the formulation is diluted with emulsifier-containing water. Barley plants (Hordeum vulgare) are sprayed with an active compound formulation of the desired concentration and are infected with larvae of the Southern green shield bug (Nezara viridula). After 4 days, the efficacy in % is determined. 100% means that all of the shield bugs have been killed; 0% means that none of the shield bugs have been killed.

Phaedon cochleariae = Phaedon cochleariae spray test; assay type: in vivo; details: application rate 100 g/ha, after 7 days
Procedure: as §1, with “water. Discs” for “water. Leaf discs”, “of Chinese cabbage leaves (Brassica pekinensis)” for “of maize (Zea mays)”, “with larvae” for “with caterpillars”, “the mustard beetle (Phaedon cochleariae).” for “the fall armyworm (Spodoptera frugiperda).”, “the beetle larvae” for “the caterpillars”, “no beetle larvae have” for “no caterpillar has”

[4] = neutral range, ammonium acetate/acetonitrile, read-out: logP (neutral)

Compound CCS(=O)(=O)c1ccc(-n2ncn(-c3cccc(F)c3)c2=O)nc1-c1nc2cc(S(=O)(=O)C(F)(F)F)ccc2o1 [Example I-14, 2-[5-Ethylsulfonyl-6-[5-(trifluoromethylsulfonyl)-1,3-benzoxazol-2-yl]-2-pyridyl]-4-(3-fluorophenyl)-1,2,4-triazol-3-one] has a pest or weed control at 100 g/ha (Spodoptera frugiperda [1]) of 100%, a pest or weed control at 4 ppm (Myzus persicae) of 90% and a chromatographic logP [2, 4] of 3.43. It also gave a pest or weed control at 100 g/ha (Diabrotica balteata) of 100% and a pest or weed control at 500 g/ha (Diabrotica balteata) of 100%.

In the case of CCS(=O)(=O)c1ccc(-n2cnn(-c3ccccc3F)c2=O)nc1-c1nc2cc(C(F)(F)F)ccc2n1C [I-34 Known from WO2017/055185, reference compound], the Emax at 4 ppm (Heliothis armigera) is reported as 0%, the Emax at 4 ppm (Plutella xylostella) is reported as 0% and the Emax at 0.8 ppm (Spodoptera frugiperda [3]) is reported as 0%.

With CCS(=O)(=O)c1ccc(F)nc1-c1nc2cc(S(=O)(=O)C(F)(F)F)ccc2o1 [2-(3-Ethylsulfonyl-6-fluoro-2-pyridyl)-5-(trifluoromethylsulfonyl)-1,3-benzoxazole] the chromatographic logP [2, 4] was 3.11.

In the case of CCS(=O)(=O)c1ccc(-n2ncn(-c3cccc(I)c3)c2=O)nc1-c1nc2cc(S(=O)(=O)C(F)(F)F)ccc2o1 [Example I-16], the pest or weed control at 100 g/ha (Spodoptera frugiperda [1]) is reported as 100%, the pest or weed control at 4 ppm (Myzus persicae) is reported as 90% and the pest or weed control at 100 g/ha (Diabrotica balteata) is reported as 100%. For the same compound, the pest or weed control at 500 g/ha (Diabrotica balteata) was 100%.

CCc1nc(C(F)(F)F)cc2nc(-c3nc(-n4ncn(-c5ccc(O)cc5)c4=O)ccc3S(=O)(=O)CC)n(C)c12 [I-016 Known from WO2018/141954, reference compound] showed an Emax at 0.8 ppm (Heliothis armigera) of 10%, an Emax at 4 ppm (Heliothis armigera) of 55% and an Emax at 0.8 ppm (Plutella xylostella) of 70%. It also gave an Emax at 0.8 ppm (Spodoptera frugiperda [3]) of 65%.

With CCS(=O)(=O)c1ccc(-n2ncn(-c3cccc(Cl)c3)c2=O)nc1-c1nc2cc(C(F)(F)C(F)(F)F)ccc2o1 [Example I-46] the pest or weed control at 100 g/ha (Spodoptera frugiperda [1]) was 100%, the pest or weed control at 500 g/ha (Nezara viridula) was 90% and the pest or weed control at 20 g/ha (Diabrotica balteata) was 100%. For the same compound, the pest or weed control at 100 g/ha (Diabrotica balteata) was 80%.

With CCS(=O)(=O)c1ccc(-n2ncn(-c3ccc(C#N)cc3)c2=O)nc1-c1nc2cc(S(=O)(=O)C(F)(F)F)ccc2o1 [Example I-06] the pest or weed control at 100 g/ha (Spodoptera frugiperda [1]) was 100%, the pest or weed control at 4 ppm (Myzus persicae) was 90% and the pest or weed control at 31.25 g/ha (Diabrotica balteata) was 100%. The pest or weed control at 125 g/ha (Diabrotica balteata) was 100% and the pest or weed control at 500 g/ha (Diabrotica balteata) was 100%.

In the case of CCS(=O)(=O)c1ccc(-n2ncn(-c3ccc(F)cc3)c2=O)nc1-c1nc2cc(S(=O)(=O)C(F)(F)F)ccc2o1 [Example I-04], the Emax at 4 ppm (Heliothis armigera) is reported as 100%, the Emax at 4 ppm (Plutella xylostella) is reported as 100% and the pest or weed control at 100 g/ha (Spodoptera frugiperda [1]) is reported as 100%. It also gave an Emax at 0.8 ppm (Spodoptera frugiperda [3]) of 100%, a pest or weed control at 4 ppm (Myzus persicae) of 100% and an activity (Phaedon cochleariae) of 100%.

CCS(=O)(=O)c1ccc(-n2ncn(-c3ccc(Cl)cc3)c2=O)nc1-c1nc2cc(S(=O)(=O)C(F)(F)F)ccc2o1 [Example I-02] showed an Emax at 0.8 ppm (Heliothis armigera) of 100%, an Emax at 4 ppm (Heliothis armigera) of 100% and an Emax at 0.8 ppm (Plutella xylostella) of 100%. It also gave a pest or weed control at 100 g/ha (Spodoptera frugiperda [1]) of 100%, an Emax at 0.8 ppm (Spodoptera frugiperda [3]) of 100% and a pest or weed control at 4 ppm (Myzus persicae) of 90%. It also gave an activity (Phaedon cochleariae) of 100%.

Compound CCSc1ccc(F)nc1-c1nc2cc(S(=O)(=O)C(F)(F)F)ccc2o1 [2-(3-Ethylsulfanyl-6-fluoro-2-pyridyl)-5-(trifluoromethylsulfonyl)-1,3-benzoxazole] has a chromatographic logP ([2]; acidic range, formic acid in water/acetonitrile, read-out: logP (acidic)) of 4.13.

For CCS(=O)(=O)c1ccc(-n2ncn(-c3ccc(Cl)cc3)c2=O)nc1-c1nc2cc(C(F)(F)C(F)(F)F)ccc2o1 [Example I-45], the pest or weed control at 100 g/ha (Spodoptera frugiperda [1]) was 100%, the pest or weed control at 500 g/ha (Nezara viridula) was 100% and the pest or weed control at 20 g/ha (Diabrotica balteata) was 80%. The pest or weed control at 100 g/ha (Diabrotica balteata) was 100%.

For O=S(=O)(c1ccc2oc(-c3nc(F)ccc3F)nc2c1)C(F)(F)F [2-(3,6-Difluoro-2-pyridyl)-5-(trifluoromethylsulfonyl)-1,3-benzoxazole], the chromatographic logP [2, 4] was 3.06.

CCS(=O)(=O)c1ccc(-n2ncn(C3CC3C(F)(F)F)c2=O)nc1-c1nc2cc(S(=O)(=O)C(F)(F)F)ccc2o1 (stereo not shown) [Example I-39] gave a pest or weed control at 100 g/ha (Spodoptera frugiperda [1]) of 100%, a pest or weed control at 500 g/ha (Nezara viridula) of 100% and a pest or weed control at 100 g/ha (Diabrotica balteata) of 100%.

With CCS(=O)(=O)c1ccc(-n2ncn(-c3ccc(Br)cc3)c2=O)nc1-c1nc2cc(S(=O)(=O)C(F)(F)F)ccc2o1 [Example I-05] the pest or weed control at 100 g/ha (Spodoptera frugiperda [1]) was 100%, the pest or weed control at 4 ppm (Myzus persicae) was 100% and the pest or weed control at 31.25 g/ha (Diabrotica balteata) was 100%. For the same compound, the pest or weed control at 125 g/ha (Diabrotica balteata) was 100% and the pest or weed control at 500 g/ha (Diabrotica balteata) was 100%.

For CCS(=O)(=O)c1ccc(-n2ncn(-c3cccc(F)c3)c2=O)nc1-c1nc2cc(C(F)(F)C(F)(F)F)ccc2o1 [Example I-47], the pest or weed control at 100 g/ha (Spodoptera frugiperda [1]) was 100%, the pest or weed control at 500 g/ha (Nezara viridula) was 100% and the pest or weed control at 20 g/ha (Diabrotica balteata) was 80%. The pest or weed control at 100 g/ha (Diabrotica balteata) was 80%.

In the case of CCS(=O)(=O)c1ccc(N2N=CC(c3ccccc3)C2=O)nc1-c1nc2cc(S(=O)(=O)C(F)(F)F)ccc2o1 (stereo not shown) [Example I-01], the pest or weed control at 100 g/ha (Spodoptera frugiperda [1]) is reported as 100%, the pest or weed control at 4 ppm (Myzus persicae) is reported as 100% and the activity (Phaedon cochleariae) is reported as 100%.

Work on CCS(=O)(=O)c1ccc(-n2ncn(-c3ccc(F)cc3)c2=O)nc1-c1nc2cc(C(F)(F)C(F)(F)F)ccc2o1 [Example I-56] yielded a pest or weed control at 100 g/ha (Spodoptera frugiperda [1]) of 100%, a pest or weed control at 500 g/ha (Nezara viridula) of 100% and a pest or weed control at 20 g/ha (Diabrotica balteata) of 100%. The pest or weed control at 100 g/ha (Diabrotica balteata) was 100%.
